Tests used:
hTERT [1] = experiment: hTERT transcription levels by RT-qPCR in KG-1; type: cell-based, human; conditions: 20 nM ABT-199, at either time point (48 or 96 hours)
Method: (§1) Samples from cell experiments (and single agent controls) were collected for molecular analyses to assess combination effects contributing to potential mechanisms of action. […] Nucleic acids were purified by first lysing cells with 350 μL of RLT Buffer (Qiagen catalog #1030963) supplemented with 2-mercaptoethanol (Sigma catalog #63689-100ML-F). RNA was purified with the AllPrep RNA/DNA Mini Kit (Qiagen catalog #80204) and reverse transcribed to cDNA using a High Capacity cDNA kit (ThermoFisher catalog #4368814) and pre-amplified prior to analysis with TaqMan PreAmp Master Mix (ThermoFisher catalog #4384557B). Products were analyzed using an in-house developed Taq-Man RT-qPCR assay to measure hTERT transcription levels (TaqMan Universal PCR Master Mix—ThermoFisher catalog #4304437; primer and probe sequences below) using a ViiA7 Real-Time PCR system from ThermoFisher: […]

hTERT [2] = experiment: hTERT transcription levels by RT-qPCR in MOLM-13; type: cell-based, human; conditions: MOLM-13, 96 hours; 50 μM imetelstat sodium and/or 20 nM ABT-199
Method: as §1

With `CC1(C)CCC(CN2CCN(c3ccc(C(=O)NS(=O)(=O)c4ccc(NCC5CCOCC5)c([N+](=O)[O-])c4)c(Oc4cnc5[nH]ccc5c4)c3)CC2)=C(c2ccc(Cl)cc2)C1` [ABT-199, 4-[4-[[2-(4-chlorophenyl)-4,4-dimethylcyclohexen-1-yl]methyl]piperazin-1-yl]-N-[3-nitro-4-(oxan-4-ylmethylamino)phenyl]sulfonyl-2-(1H-pyrrolo [2,3-b]pyridin-5-yloxy)benzamide] the “hTERT RNA expression level, percentage of untreated controls” value (hTERT [1]) was 90-95% and the “hTERT RNA expression level, percentage of untreated controls” value (hTERT [2]) was ~69%.
